The record followed here is patent US10149887B2, “Peptides and peptidomimetics in combination with t cell activating and/or checkpoint inhibiting agents for cancer treatment” (CanBas Co., Ltd., priority 2015, dated 2018).

For one data set, the system named is MIAPaCa2. To be noted: three hours exposure. How it is done: The medium was changed and incubated an additional 24, 48 or 72 hour. Following incubation, 20 μl of alamarBlue 90% reagent was added to each well for another 6 hours for detection of cell viability by fluorescent intensity. Fluorescent intensity was measured using a Spectrafluor Plus plate reader with exitation 530 nm and emission 590 nm. The IC50 was calculated (Table 6).

A further data set has as its system CT26WT. Description: CT26WT s.c. syngeneic tumor model in Balb/c mice (Example 9). The class given is in vivo, mouse. As to conditions: CDDP 5 mg/kg, CBP501 7.5 mg/kg, anti-mPD1 200 ug, 3 dosing cycles. How it is done:
Relative sizes of tumors were plotted versus the number of days after initiation of the treatment.
All animal studies were conducted according to the protocols approved by the institutional animal care committee of CanBas Co. Ltd. Six-week-old female Balb/c mice (Charles River Laboratories Japan Inc.) were inoculated subcutaneously in the flank with a suspension of CT26WT (5×10^5 cells). […] Tumor volumes, measured thrice weekly with a pair of calipers, were calculated with the following formula: volume (mm^3)=[width (mm)]^2×length (mm)/2. Growth curves after treatment were generated by plotting the mean+/−SE of tumor sizes.
Treatments were initiated when tumor size were reached (˜100 mm^3).

Data set [1] deals with Jurkat cells. The data set can be described thus: M phase checkpoint abrogation / non specific toxicity, colchicine treated Jurkat cells. The class given is cell-based. As to conditions: dose with 5 μg/ml colchicine that produced Jurkat cell cycle disturbance, 24 hours. The protocol: Flow cytometry analysis of M phase checkpoint abrogation by the compounds was performed using human T cell leukemia Jurkat cell line treated with colchicine (5 μg/ml or 0.5 μg/ml) and various doses of peptide/peptidomimetics for 24 hr (FIG. 12). The DNA of the cells was stained and analyzed by flow cytometry as described above.
The “Appearance of side effect when used alone” indicates the peptide/peptidomimetic dose that produced Jurkat cell cycle disturbance, i.e., the appearance of significant amounts of SubG1 cells (dead cells) or cells in which the DNA content of each varies more than usual. […] The “G2 abrogating dose” indicates the peptide/peptidomimetic dose with 40 μg/ml bleomycine that produced detectable G2 checkpoint abrogation activity following treatment for 24 hours. The “Appearance of side effect when used with colchicine” indicates the peptide/peptidomimetic dose with 5 μg/ml colchicine that produced Jurkat cell cycle disturbance following treatment for 24 hours.
A comparison between G2 checkpoint abrogating activity and non specific toxicity (M checkpoint abrogation) by CB501 was performed. In brief, Jurkat cells were treated with 40 μg/ml bleomycin or 0.5 μg/ml colchicine for G2 checkpoint abrogating activity and non specific toxicity, respectively. The DNA amount in each of the treated cells was analyzed by flow cytometry, as previously described.

For data set [2], the system named is Jurkat cells. Description: G2 checkpoint abrogation, flow cytometry of bleomycin treated Jurkat cells. The class given is cell-based, human. As to conditions: dose with 40 μg/ml bleomycine giving detectable G2 checkpoint abrogation, 24 hours.
Description: Cell-cycle analysis The cell cycle status of the cells treated with bleomycin or adriamcin were analyzed by flow cytometry as described by Kawabe (1997) Nature 385:454-458. In brief, two million cells were re-suspended and incubated in 200 μl Krishan's solution (0.1% Sodium citrate, 50 μg/ml PI, 20 μg/ml RNase A and 0.5% NP-40) for 1 hr at 4° C. and analyzed by a flow cytometry, FACScan™ (Beckton Dickinson, Mountain View, Calif.) with the program CELLQuest™ (Beckton Dickinson).
Flow cytometry analysis of G2 checkpoint abrogation was performed using human leukemia derived Jurkat cell line. In brief, cultured cells were treated with various doses of peptide/peptidomimetic and 40 μg/ml bleomycine for 24 hr. The DNA of the cells was stained with propidium iodide and analyzed by flow cytometry.
The G2 checkpoint abrogating activity of various arginine rich sequences at different doses on cells treated with bleomycine was studied. Briefly, peptides were added to culture medium of Jurkat cells with bleomycin (40 μg/ml) at 0.2 μg/ml, 0.39 μg/ml, 0.78 μg/ml, 1.56 μg/ml, 3.125 μg/ml, 6.25 μg/ml, 12.5 μg/ml, 25 μg/ml and 50 μg/ml. Cells were subsequently harvested after 24 hours, stained with Krishan's solution, and analyzed with flow cytometry as previously described.
In the next data set the target is CHK2 (Homo sapiens, UniProt O96017). Description: In vitro kinase inhibition, PepTag Non-Radioactive Protein Kinase Assay. The class given is biochemical. To be noted: purified CHK2 kinase. How it is done:
Since two kinases, Chk1 and Chk2, are important for G2 checkpoint mechanism, kinase inhibition analysis of both enzymes was performed. In vitro kinase inhibition analysis was performed using “PepTag® Non-Radioactive Protein Kinase Assays”, Promega, according to company's protocol, except purified CHK2 kinase was used instead of PKC.

The test system of data set [3] is Jurkat cells. Description: Side effect of peptide used alone: Jurkat cell cycle disturbance (flow cytometry). The class given is cell-based. To be noted: dose that produced Jurkat cell cycle disturbance, peptide alone. The gist of the method:
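Cell-cycle profiles were obtained by flow cytometry after propidium iodide staining in Krishan's solution for 1 hr at 4 °C. The value is the peptide dose given alone that disturbed the cell cycle, seen as significant SubG1 (dead) cells or unusually variable DNA content.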
(A flow cytometer gives signals particle by particle.)

In another data set the target is PKA. The data set can be described thus: In vitro kinase inhibition, PepTag Non-Radioactive Protein Kinase Assay. The class given is biochemical.

Molecules are shown by their SMILES. Read-outs that look alike come from different tables or passages of the source. Square brackets hold non-standard residues; d marks the D form. Peptide text beside a SMILES is read from it. dPhe(F5) = N[C@H](Cc1c(F)c(F)c(F)c(F)c1F)C(=O)O; dCha = N[C@H](CC1CCCCC1)C(=O)O

Sequence of CHK2 (O96017 whole entry): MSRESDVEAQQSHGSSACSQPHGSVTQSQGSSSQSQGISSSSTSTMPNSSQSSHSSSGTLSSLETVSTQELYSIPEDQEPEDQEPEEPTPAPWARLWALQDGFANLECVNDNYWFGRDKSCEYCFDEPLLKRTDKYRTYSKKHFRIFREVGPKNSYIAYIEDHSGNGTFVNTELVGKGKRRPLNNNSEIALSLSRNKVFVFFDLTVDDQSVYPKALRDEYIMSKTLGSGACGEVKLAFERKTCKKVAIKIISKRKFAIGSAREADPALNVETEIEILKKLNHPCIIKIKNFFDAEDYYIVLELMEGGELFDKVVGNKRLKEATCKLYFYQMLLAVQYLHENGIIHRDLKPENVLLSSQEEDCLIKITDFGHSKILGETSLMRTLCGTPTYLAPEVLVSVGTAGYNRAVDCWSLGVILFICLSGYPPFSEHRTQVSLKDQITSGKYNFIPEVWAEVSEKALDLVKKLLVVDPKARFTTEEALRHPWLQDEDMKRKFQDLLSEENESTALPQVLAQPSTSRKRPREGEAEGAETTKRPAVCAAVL

Consider `N.N.[Cl][Pt][Cl]` [cisplatin, cis-diamminodichloroplatinum, reference compound], for which the IC50 (usually the midpoint of a concentration-inhibition curve) in the data set with MIAPaCa2 (read-out: IC50 24 hr, additional 24 hour) was determined as 16 µM; in the data set on MIAPaCa2 (read-out: IC50 48 hr, additional 48 hour) it was 31 µM; in the data set with MIAPaCa2 (read-out: IC50 72 hr, additional 72 hour), 46 µM. Moreover, the “Reduction of tumor growth as compared to vehicle-treated mice” value in the data set with CT26WT worked out at 52.7%.
With `N=C(N)NCCC[C@@H](NC(=O)[C@@H](CCCCN)NC(=O)[C@@H](CCCCN)NC(=O)[C@@H](CCCNC(=N)N)NC(=O)[C@@H](CCCNC(=N)N)NC(=O)[C@@H](CCC(N)=O)NC(=O)[C@@H](CCCNC(=N)N)NC(=O)[C@@H](CCCNC(=N)N)NC(=O)[C@@H](CCCNC(=N)N)NC(=O)[C@@H](CC1CCCCC1)NC(=O)[C@@H](Cc1c(F)c(F)c(F)c(F)c1F)NC(=O)[C@@H](CCCNC(=N)N)NC(=O)[C@@H](CO)NC(=O)CNC(=O)[C@@H](CO)NC(=O)[C@@H](Cc1ccc(O)cc1)NC(=O)[C@H](N)Cc1ccc(O)cc1)C(=O)NCC(=O)N[C@H](Cc1ccc(O)cc1)C(=O)O` [CBP450, (d-Tyr)(d-Tyr)(d-Ser)(1-Gly)(d-Ser)(d-Arg)(d-Phe-2,3,4,5,6-F)(d-Cha)(d-Arg)(d-Arg)(d-Arg)(d-Gln)(d-Arg)(d-Arg)(d-Lys)(d-Lys)(d-Arg)(1-Gly)(d-Tyr)] (H-[dY][dY][dS]G[dS][dR][dPhe(F5)][dCha][dR][dR][dR][dQ][dR][dR][dK][dK][dR]G[dY]-OH; N-terminus and C-terminus assumed), the “Appearance of side effect when used with Colchicine” value with Jurkat cells [1] was greater than 6.25 µM. Besides, the G2 abrogating dose with Jurkat cells [2] was no less than 0.78 µM. Further, the 50% inhibitory concentration (IC50) is 10 µM on CHK2 and greater than 400 µM at PKA. In addition, in the data set on Jurkat cells [3], the “Appearance of side effect when used alone” value is greater than 6.25 µM.
